{"source": "patent US20250017949A1", "about": "“METHODS AND COMPOSITIONS FOR SUPPRESSING AGING-ASSOCIATED CLONAL HEMATOPOIESIS” (The Jackson Laboratory, priority 2021, published 2025)", "key": {"Dnmt3a^R878H/+ cells": {"system": "Dnmt3a^R878H/+ cells", "test": "Etanercept transplants (pan-TNFα blockade after competitive secondary transplant)", "format": "in vivo, mouse", "text": "FIGS. 7A-7H: TNFR1 is required for Dnmt3a^R878H/+ HSC self-renewal while TNFR2 regulates lymphoid cell production. (FIG. 7A) Schematic of experimental design to test competitive, serial transplant of Mx-Cre control, Dnmt3a^R878H/+(R878H/+), Dnmt3a^R878H/+ Tnfrsf1a^−/− (R878H/+; TNFR1KO) and Dnmt3a^R878H/+ Tnfrsf1b^−/− (R878H/+; TNFR2KO) in aged (>12 mo) recipient mice. (FIG. 7B) Frequency of donor cells in PB (left) and BM (right) of recipient mice at 20 weeks post-secondary transplant. Significance was calculated using Brown-Forsythe and Welch ANOVA with Welch's correction. (FIG. 7C) Representative flow cytometry plots showing B cell and myeloid cell frequencies in donor derived PB. (FIG. 7D) Frequency of B cells (left), T cells (center) and myeloid cells (right) in donor derived PB at 20 weeks post-secondary transplant. Significance was calculated using one-way ANOVA with Tukey's multiple comparisons test. (FIG. 7E) Experimental schematic of transplant experiment with etanercept treatment. (FIG. 7F) Frequency of control or R878H/+ donor cells in PB pre- and post-etanercept treatment. Significance was calculated using two-way ANOVA with Fisher's LSD. (FIG. 7G) Frequency of control or R878H/+ donor cells in BM post-etanercept or vehicle treatment. Significance was calculated using two-way ANOVA with Fisher's LSD. (FIG. 7H) Frequency of HSC, MPP^Mk/E, MPP^G/M, and MPP^Ly populations in control or R878H/+ BM. Significance was calculated using two-way ANOVA with Fisher's LSD. (FIGS. 7B and 7D) Dots represent individual recipient mice, boxes show 25 to 75th percentile, line is median, whiskers show min to max. (FIG. 7F) Dots represent mean across biological replicates (n=4). (FIGS. 7G and 7H) Bars represent mean+/− SEM (n=4). *P<0.05, **P<0.01, ***P<0.001, ****P<0.0001.\nTNFα signaling occurs through two distinct TNFα receptors, TNFR1 (Tnfrsf1a) and TNFR2 (Tnfrsf1b). Both TNFR1 and TNFR2 are expressed on HSC and MPP populations and are not altered in surface expression between control and Dnmt3a^R878H/+ mice (data not shown). To determine which of these receptors are responsible for TNFα-mediated selective advantage of Dnmt3a^R878H/+ HSCs and B lymphoid cell production, we crossed Dnmt3a^R878H/+ mice with Tnfrsf1a or Tnfrsf1b knockout mice (data not shown) and tested HSC function by competitive serial BM transplantation into aged recipients (FIG. 7A). […]\n1×10^6 BM cells from 2-4-month-old Dnmt3a^+/+ Mx-Cre or Dnmt3a^fl-R878H/+ Mx-Cre donors were competitively transplanted with wild-type CD45.1+ CD45.2+ F1 BM cells in 2-4-month-old CD45.1+ lethally irradiated recipients. […] PB was monitored weekly and at 28 weeks post-transplant, bone marrow was harvested for analysis."}, "STAT3": {"system": "STAT3", "test": "Phosphorylation in HSPCs in response to recombinant OSM stimulation", "format": "cell-based, mouse", "settings": "recombinant OSM stimulation for 30 minutes; FIG. 10G", "text": "(§1) FIGS. 10A-10G: OSM signaling is increased in Dnmt3a-mutant hematopoietic stem cells (HSCs) in an aged bone marrow microenvironment. (FIG. 10A) Experiment design. (FIG. 10B) Volcano plot of differentially expressed genes between Dnmt3a-mutant (R878H) vs. wild-type (+/+) HSCs in young recipients (left panel) and aged recipients (right panel). […] (FIG. 10C) Ingenuity Pathway Analysis prediction of upstream factors that would produce the differential gene expression pattern observed in aged recipients shown in FIG. 10B. (FIG. 10D) Gene set enrichment analysis of OSM signaling signature in Dnmt3a-mutant (R878H) vs. wild-type (+/+) HSCs specifically in aged recipient mice. (FIG. 10E) OSM levels in bone marrow fluid of young, middle-aged and old C57BL/6 wild-type mice assessed by ELISA. (FIG. 10F) Schematic of OSM-OSMR signaling pathway with differentially expressed genes in Dnmt3a-mutant vs. control HSCs colored in green (increased) or orange (decreased). (FIG. 10G) Phosphorylation of Stat3 (left panel) and Stat5 (right panel) in wild-type or Dnmt3a-mutant HSPCs in response to recombinant OSM stimulation for 30 minutes.\n(§2) To determine which factor(s) might be elevated in the aged bone marrow microenvironment that would impact Dnmt3a-mutant HSPCs, donor-derived hematopoietic stem cells (HSCs) were re-isolated from the experiment shown in FIG. 9A (design shown in FIG. 10A). […]"}, "STAT5": {"system": "STAT5", "test": "Phosphorylation in HSPCs in response to recombinant OSM stimulation", "format": "cell-based, mouse", "settings": "recombinant OSM stimulation for 30 minutes; FIG. 10G", "text": "as §1, §2"}, "[1]": {"system": "Dnmt3a-mutant HSCs vs wild-type HSCs", "test": "Mixed HSC culture with or without recombinant OSM, then transplant and engraftment", "format": "in vivo, mouse", "settings": "then transplant, FIGS. 11B-11C", "text": "(FIG. 11A) Experiment design. Contribution of wild-type (WT F1) and competitor Dnmt3a-mutant (R878H/+) cells to peripheral blood (FIG. 11B) and bone marrow (FIG. 11C) of recipient mice after culture with or without recombinant OSM.\nNext, to determine if OSM stimulation has a differential functional effect on Dnmt3a-mutant vs. control HSCs, we established mixed cultures of purified control and Dnmt3a-mutant HSCs in culture conditions that promote HSC self-renewal and expansion. To test HSC function, we transplanted cells at the end of the culture period into recipient mice and measured their engraftment capacity (FIG. 11A). We find that in absence of OSM there is similar or equal engraftment of wild-type and Dnmt3a-mutant competitor cells in recipient mice (FIGS. 11B-11C). […] This finding supports that OSM is a major factor causing clonal hematopoiesis."}, "[2]": {"system": "Dnmt3a-mutant (D3a) hematopoietic stem and progenitor cells", "test": "Myeloid colony formation in media containing MitoQ or vehicle (DMSO)", "format": "cell-based, mouse", "settings": "in vitro, MitoQ vs vehicle (DMSO), FIG. 3", "description": "(§3) Number of myeloid colonies produced from wild-type MxCre control or Dnmt3a-mutant (D3a) hematopoietic stem and progenitor cells in media containing MitoQ or vehicle (DMSO).\n(§4) To evaluate the extent to which targeting defects in mitochondrial metabolism might improve wild-type HSC function and thus reduce the selective advantage of Dnmt3a-mutant HSCs, cells were treated with the mitochondrially targeted antioxidant mitoquinol (MitoQ) in vitro and in vivo. […] Treatment with MitoQ or other methods to improve mitochondrial metabolism are attractive targets to consider in the treatment of clonal hematopoiesis and prevention of leukemia."}, "[3]": {"system": "wild-type MxCre control hematopoietic stem and progenitor cells", "test": "Myeloid colony formation in media containing MitoQ or vehicle (DMSO)", "format": "cell-based, mouse", "settings": "in vitro, MitoQ vs vehicle (DMSO); FIG. 3", "description": "as §3, §4"}, "[4]": {"system": "Dnmt3a-mutant (D3a) hematopoietic stem cells", "test": "In vivo MitoQ treatment after transplant into aged recipient mice", "design": "species or system mouse", "settings": "in vivo MitoQ vs vehicle (PBS) after transplant into aged recipient mice, FIG. 4", "description": "Frequency of donor-derived cells produced from wild-type (MxCre) control or Dnmt3a-mutant (D3a) hematopoietic stem cells post-transplantation and in vivo treatment with MitoQ or vehicle (PBS).\nas §4"}, "[5]": {"settings": "etanercept 25 mg/kg IP twice per week for four weeks vs vehicle, FIG. 7H"}}, "note": "Entries after “also recorded” stand apart in the source; their conditions may differ.", "data": [{"substance": "Etanercept", "values": [{"measurement": "Frequency of R878H/+ donor cells in BM (BM engraftment)", "setting": "Dnmt3a^R878H/+ cells; etanercept 25 mg/kg IP twice per week for four weeks vs vehicle, FIG. 7G", "result": "trended toward reduction in BM engraftment"}, {"measurement": "Frequency of Dnmt3a^R878H/+ HSC, MPP^Mk/E and MPP^Ly populations in BM", "setting": "Dnmt3a^R878H/+ cells; [5]", "result": "reduced the frequency"}, {"measurement": "Frequency of Dnmt3a^R878H/+ myeloid-primed multipotent progenitors MPP^G/M in BM", "setting": "Dnmt3a^R878H/+ cells; [5]", "result": "trend toward increase"}, {"measurement": "Frequency of R878H/+ donor cells in PB (competitive PB advantage)", "setting": "Dnmt3a^R878H/+ cells; etanercept 25 mg/kg IP twice per week for four weeks, pre- vs post-treatment, FIG. 7F", "result": "reduced the competitive PB advantage"}]}, {"substance": "OSM: recombinant pro-inflammatory cytokine Oncostatin M used to stimulate HSCs/HSPCs", "values": [{"measurement": "Phosphorylation of STAT3 in Dnmt3a-mutant vs control HSPCs", "setting": "STAT3", "result": "greater phosphorylation of STAT3; also recorded: greater downstream Stat3 phosphorylation compared to control HSCs"}, {"measurement": "Phosphorylation of STAT5 in HSPCs", "setting": "STAT5", "result": "phosphorylation of STAT5 was not seen"}, {"measurement": "Engraftment of Dnmt3a-mutant vs wild-type cells in peripheral blood and bone marrow of recipient mice", "setting": "[1]", "result": "favors growth of Dnmt3a-mutant hematopoietic stem cells (HSCs); also recorded: greater multi-lineage engraftment capacity in recipient mice compared to OSM-treated wild-type HSCs"}, {"measurement": "Engraftment of Dnmt3a-mutant vs wild-type cells in peripheral blood and bone marrow of recipient mice", "setting": "[1]; listed as recombinant OSM", "result": "entirely favors growth of Dnmt3a-mutant HSCs over wild-type cells"}]}, {"substance": "mitoquinol", "values": [{"measurement": "Number of myeloid colonies / progeny produced from Dnmt3a-mutant cells", "setting": "[2]", "result": "reduce number of progeny produced from Dnmt3a-mutant cells; also recorded: decreases myeloid differentiation of hematopoietic stem and progenitor cells in vitro"}, {"measurement": "Number of myeloid colonies / progeny produced from Dnmt3a-mutant cells", "setting": "[2]; listed as MitoQ®", "result": "reduced myeloid differentiation of Dnmt3a-mutant HSCs"}, {"measurement": "Myeloid differentiation of wild-type control cells", "setting": "[3]", "result": "did not impact differentiation of wild-type control cells"}, {"measurement": "Contribution of Dnmt3a-mutant cells to hematopoiesis (frequency of donor-derived cells)", "setting": "[4]", "result": "reduced contribution of Dnmt3a-mutant cells to hematopoiesis; also recorded: decreases contribution of Dnmt3a-mutant cells to mature hematopoiesis in vivo"}, {"measurement": "Contribution of Dnmt3a-mutant cells to hematopoiesis (frequency of donor-derived cells)", "setting": "[4]; listed as MitoQ®", "result": "impaired differentiation and mature cell production from Dnmt3a-mutant HSCs"}]}]}
